Measurements published in patent publication US5705662A, “17-(3-imino-2-alkylpropenyl)-5β, 14β-androstane derivatives active on the cardiovascular system, processes for their preparation and pharmaceutical compositions containing same” (Sigma-Tau Industrie Farmaceutiche Riunite S.p.A., priority 1994, dated 1998).

What was measured:
Na^+,K^+ -ATPase [1] = molecular target: T1, Na^+,K^+ -ATPase (Canis lupus familiaris, UniProt P50997); test: inhibition of the activity of the purified Na+,K+-ATPase (% hydrolysis of 32P-ATP); format: biochemical
T1 construct: Na^+,K^+ -ATPase receptor purified according to Jorghensen; from tissue
Text: (§1) To test the affinity for the receptor site of the Na^+,K^+ -ATPase and the agonist or antagonist activity on the enzyme, the following tests were used:
b) inhibition of the activity of the purified Na^+,K^+ -ATPase measured as % of hydrolysis of ^32 P-ATP in presence and in absence of the tested compound (Doucet A. et al. Am. J. Physiol., 1986, 251, F851)

Na^+,K^+ -ATPase [2] = molecular target: T1, Na^+,K^+ -ATPase; test: displacement of the specific 3H-ouabain binding from the purified Na+,K+-ATPase receptor
Text: as §1
a) displacement of the specific ^3 H-ouabain binding from the Na^+,K^+ -ATPase receptor purified according to Jorghensen (Jorghensen P., BBA. 1974, 356, 36) and Erdmann (Erdmann E. et al., Arzneim. Forsh., 1984, 34, 1314);

Na^+,K^+ -ATPase [3] = conditions: J. Med. Chem. 1978, 21, 284; Quant. Struct.-Act. Relat. 1988, 7, 160; DE 4,227,605; DE 4,227,626; cited from earlier work
[4] = J. Med. Chem. 1978, 21, 284; Quant. Struct.-Act. Relat. 1988, 7, 160; cited from earlier work
[5] = purified Na+,K+-ATPase, 32P-ATP hydrolysis, read-out: Inhibitory Activity log IC50 (converted)
[6] = 3H-ouabain displacement, purified Na+,K+-ATPase, read-out: Binding ^3 H-Ouab. Displacement log IC50 (converted)

Row | SMILES | IC50 (Na^+,K^+ -ATPase [1]; [5]) [nM] | IC50 (Na^+,K^+ -ATPase [2]) [nM] | IC50 (Na^+,K^+ -ATPase [2]; [6]) [nM] | IC50 (Na^+,K^+ -ATPase [1]) [nM] | other results
1 | CC(/C=N/NC(=N)N)=C\[C@H]1CC[C@]2(O)[C@@H]3CC[C@@H]4C[C@@H](OCCCN5CCCC5)CC[C@]4(C)[C@H]3CC[C@]12C [Comp. I-av] | 200 | 50.1 | – | – | –
2 | C[C@]12CC[C@H](O)C[C@H]1CC[C@@H]1[C@@H]2CC[C@]2(C)C(=NNC(=N)N)CC[C@]12O [17-guanidinoimino-5β-androstane-3β,14β-diol] | – | – | – | – | inhibition of Na+,K+-ATPase (in words) (Na^+,K^+ -ATPase [3]): weak inhibitors of Na^+,K^+ -ATPase; positive inotropic activity (in words) [4]: weak positive inotropic agents
3 | CC(/C=N/OCCN)=C\[C@H]1CC[C@]2(O)[C@@H]3CC[C@@H]4C[C@@H](OCC(C)N5CCCC5)CC[C@]4(C)[C@H]3CC[C@]12C (stereo partly drawn) [Comp. I-aw, (E,E)-3β-[2-(1-Pyrrolidinyl)propoxy]-17β-[3-(2-aminoethoxyimino)-2-methyl-1-propenyl]-5β-androstane-14β-ol] | 63.1 | – | 25.1 | – | –
4 | CC(/C=N/OCCNC(=N)N)=C\[C@H]1CC[C@]2(O)[C@@H]3CC[C@@H]4C[C@@H](O)CC[C@]4(C)[C@H]3CC[C@]12C [Comp. I-aj, (E,E)-17β-[3-(2-Guanidinoethoxyimino)-2-methyl-1-propenyl]-5β-androstane-3β,14β-diol] | 126 | 50.1 | – | – | –
5 | CC(/C=N/NC(=N)N)=C\[C@@]1(O)CC[C@]2(O)[C@@H]3CC[C@@H]4C[C@@H](O)CC[C@]4(C)[C@H]3CC[C@]12C [Comp. I-aq, (E,E)-17β-(3-Guanidinoimino-2-methyl-1-propenyl]-5β-androstane-3β,14β,17α-triol] | – | – | 398 | 3980 | –
6 | CCC(/C=N/OCCCN)=C\[C@H]1CC[C@]2(O)[C@@H]3CC[C@@H]4C[C@@H](O)CC[C@]4(C)[C@H]3CC[C@]12C [Comp. I-an, (E,E)-17β-[3-(3-Aminopropoxyimino)-2-ethyl-1-propenyl]-5β-androstane-3β,14β-diol] | 316 | 100 | – | – | –
7 | CCC(/C=N/OCCCN(C)C)=C\[C@H]1CC[C@]2(O)[C@@H]3CC[C@@H]4C[C@@H](O)CC[C@]4(C)[C@H]3CC[C@]12C [Comp. I-ap, (E,E)-17β-[3-(3-Dimethylaminopropoxyimino)-2-ethyl-1-propenyl]-5β-androstane-3β,14β-diol] | 631 | 200 | – | – | –
8 | CC(/C=N/OCCN)=C\[C@H]1CC[C@]2(O)[C@@H]3CC[C@@H]4C[C@@H](OCCN)CC[C@]4(C)[C@H]3CC[C@]12C [Comp. I-ay, (E,E)-3β-(2-Aminoethoxy)-17β-[3-(2-aminoethoxyimino)-2-methyl-1-propenyl]-5β-androstane-14β-ol] | 31.6 | – | 25.1 | – | –
9 | CC(/C=N/NC(=N)N)=C\[C@H]1CC[C@]2(O)[C@@H]3CC[C@@H]4C[C@H](O)CC[C@]4(C)[C@H]3CC[C@]12C [Comp. I-bb, (E,E)-17β-(3-Guanidinoimino-2-methyl-1-propenyl)-5β-androstane-3α,14β-diol] | – | 631 | – | 3160 | –
10 | CC(/C=N/OCCCN)=C\[C@H]1CC[C@]2(O)[C@@H]3CC[C@@H]4C[C@@H](O)CC[C@]4(C)[C@H]3CC[C@]12C [Comp. I-ag] | 50.1 | – | 25.1 | – | –
11 | CCC(/C=N/OCCN)=C\[C@H]1CC[C@]2(O)[C@@H]3CC[C@@H]4C[C@@H](O)CC[C@]4(C)[C@H]3CC[C@]12C [Comp. I-am, (E,E)-17β-[3-(2-Aminoethoxyimino)-2-ethyl-1-propenyl]-5β-androstane-3β,14β-diol] | 126 | – | 63.1 | – | –
12 | CC(/C=N/NC(=N)N)=C\[C@H]1CC[C@]2(O)[C@@H]3CC[C@@H]4C[C@@H](OCCN5CCCC5)CC[C@]4(C)[C@H]3CC[C@]12C [Comp. I-at, (E,E)-36-[2-(1-Pyrrolidinyl)ethoxy]-17β-(3-guanidinoimino-2-methyl-1-propenyl]-5β-androstane-14β-ol] | 158 | 39.8 | – | – | –
13 | CC(/C=N/OCCN)=C\[C@H]1CC[C@]2(O)[C@@H]3CC[C@@H]4C[C@@H](OCCCN)CC[C@]4(C)[C@H]3CC[C@]12C [Comp. I-ba] | 39.8 | – | 20 | – | –
14 | CC(/C=N/NC(=N)N)=C\[C@H]1CC[C@]2(O)[C@@H]3CC[C@@H]4C[C@@H](OCCN)CC[C@]4(C)[C@H]3CC[C@]12C [I-ax] | 39.8 | – | 25.1 | – | –
15 | CC(/C=N/NC1=NCCN1C)=C\[C@H]1CC[C@]2(O)[C@@H]3CC[C@@H]4C[C@@H](O)CC[C@]4(C)[C@H]3CC[C@]12C [Comp. I-ac, (E,E)-17β-[3-(1-Methyl-2-imidazolin-2-yl)hydrazono-2-methyl-1-propenyl]-5β-androstane-3β,14β-diol] | – | – | 316 | 3980 | –
16 | CC(/C=N/NC(=N)NCCN(C)C)=C\[C@H]1CC[C@]2(O)[C@@H]3CC[C@@H]4C[C@@H](O)CC[C@]4(C)[C@H]3CC[C@]12C [Comp. I-ae, (E,E)-17β-{3-[3-(2-Dimethylaminoethyl)guanidinoimino]-2-methyl-1-propenyl}-5β-androstane-3β,14β-diol] | – | 501 | – | 6310 | –
17 | CC(/C=N/OCCN(C)C)=C\[C@@]1(O)CC[C@]2(O)[C@@H]3CC[C@@H]4C[C@@H](O)CC[C@]4(C)[C@H]3CC[C@]12C [Comp. I-as, (E,E)-17β-[3-(2-Dimethylaminoethoxyimino)-2-methyl-1-propenyl]-5β-androstane-3β,14β,17α-triol] | – | – | 398 | 3160 | –
18 | CC(/C=N/OCCN)=C\[C@@]1(O)CC[C@]2(O)[C@@H]3CC[C@@H]4C[C@@H](O)CC[C@]4(C)[C@H]3CC[C@]12C [Comp. I-ar, (E,E)-17β-[3-(2-Aminoethoxyimino)-2-methyl-1-propenyl]-5β-androstane-3β,14β,17α-triol] | – | – | 316 | 2510 | –
19 | CCC(/C=N/OCCN(C)C)=C\[C@H]1CC[C@]2(O)[C@@H]3CC[C@@H]4C[C@@H](O)CC[C@]4(C)[C@H]3CC[C@]12C [Comp. I-ao, (E,E)-17β-[3-(2-Dimethylaminoethoxyimino)-2-ethyl-1-propenyl]-5β-androstane-3β,14β-diol] | 501 | 126 | – | – | –
20 | CC(/C=N/OCCN(C)C)=C\[C@H]1CC[C@]2(O)[C@@H]3CC[C@@H]4C[C@@H](O)CC[C@]4(C)[C@H]3CC[C@]12C [Comp. I-ah, (E,E)-17β-[3-(2-Dimethylaminoethoxyimino)-2-methyl-1-propenyl]-5β-androstane-3β,14β-diol] | 63.1 | – | 20 | – | –
21 | CC(/C=N/OCCCN(C)C)=C\[C@H]1CC[C@]2(O)[C@@H]3CC[C@@H]4C[C@@H](O)CC[C@]4(C)[C@H]3CC[C@]12C [Comp. I-ai, (E,E)-17β-[3-(3-Dimethylaminopropoxyimino)-2-methyl-1-propenyl]-5β-androstane-3β,14β-diol] | 63.1 | – | 31.6 | – | –
22 | CC(/C=N/OCCN)=C\[C@H]1CC[C@]2(O)[C@@H]3CC[C@@H]4C[C@H](O)CC[C@]4(C)[C@H]3CC[C@]12C [Comp. I-bc, (E,E)-17β-[3-(2-Aminoethoxyimino)-2-methyl-1-propenyl]-5β-androstane-3α,14β-diol] | – | 501 | – | 2510 | –
23 | CC(/C=N/OCCN)=C\[C@H]1CC[C@]2(O)[C@@H]3CC[C@@H]4C[C@H](OCCCN)CC[C@]4(C)[C@H]3CC[C@]12C [Comp. I-be, (E,E)-3α-(3-Aminopropoxy)-17β-[3-(2-aminoethoxyimino)-2-methyl-1-propenyl]-5β-androstane-14β-ol] | – | 631 | – | 3980 | –
24 | CCC(/C=N/NC(=N)N)=C\[C@H]1CC[C@]2(O)[C@@H]3CC[C@@H]4C[C@@H](O)CC[C@]4(C)[C@H]3CC[C@]12C [Comp. I-al, (E,E)-17β-(3-Guanidinoimino-2-ethyl-1-propenyl)-5β-androstane-3β,14β-diol] | – | 126 | – | 1000 | –
25 | CC(/C=N/NC1=NCCN1)=C\[C@H]1CC[C@]2(O)[C@@H]3CC[C@@H]4C[C@@H](O)CC[C@]4(C)[C@H]3CC[C@]12C [Comp. I-ab, (E,E)-17β-[3-(2-Imidazolin-2-yl)hydrazono-2-methyl-1-propenyl]-5β-androstane-3β,14β-diol] | 3160 | – | 63.1 | – | –
26 | CC(/C=N/OCCCNC(=N)N)=C\[C@H]1CC[C@]2(O)[C@@H]3CC[C@@H]4C[C@@H](O)CC[C@]4(C)[C@H]3CC[C@]12C [Comp. I-ak, (E,E)-17β-[3-(3-Guanidinopropoxyimino)-2-methyl-1-propenyl]-5β-androstane-3β,14β-diol] | – | – | 63.1 | 200 | –
27 | CC(/C=N/OCCN)=C\[C@H]1CC[C@]2(O)[C@@H]3CC[C@@H]4C[C@@H](OCCN5CCCC5)CC[C@]4(C)[C@H]3CC[C@]12C [Comp. I-au] | 39.8 | – | 20 | – | –
28 | CC(/C=N/NC1=NCCCN1)=C\[C@H]1CC[C@]2(O)[C@@H]3CC[C@@H]4C[C@@H](O)CC[C@]4(C)[C@H]3CC[C@]12C [Comp. I-ad, (E,E)-17β-[3-(1,4,5,6-Tetrahydro-2-pyrimidinyl)hydrazono-2-methyl-1-propenyl]-5β-androstane-3β,14β-diol] | – | – | 63.1 | 2510 | –
29 | CC(/C=N/OCCN)=C\[C@H]1CC[C@]2(O)[C@@H]3CC[C@@H]4C[C@H](OCCN5CCCC5)CC[C@]4(C)[C@H]3CC[C@]12C [Comp. I-bd] | – | 501 | – | 3160 | –
30 | CC(/C=N/NC(=N)N)=C\[C@H]1CC[C@]2(O)[C@@H]3CC[C@@H]4C[C@@H](OCCCN)CC[C@]4(C)[C@H]3CC[C@]12C [Comp. I-az] | 31.6 | – | 25.1 | – | –
